Data: patent publication US7541374B2, “Malononitrile compounds and use thereof” (Sumitomo Chemical Company, Limited, priority 2004, dated 2009)

Experiments:
Format in all cases: in vivo
[1] = system: Musca domestica; experiment: Test Example 3: treated filter paper with sucrose bait, Musca domestica; conditions: 500 ppm, 0.7 ml on filter paper; ten female Musca domestica imagoes; after 24 hours; read-out: rate of dead pests
Procedure: (§1) The formulation obtained according to Formulation Example 5 using the compound of the present invention (2), (3), (4), (6), (7), (8), (11), (12), (13), (15), (16), (19), (20), (21), (22), (28), (29), (30), (31), (32), (33), (34), (36), (37), (38) and (39) respectively, was diluted with water so that the active ingredient concentration came to 500 ppm to prepare a pesticidal solution for test.
(§2) On the bottom of a polyethylene cup having a diameter of 5.5 cm, a filter paper having the same diameter was laid, and 0.7 ml of the above pesticidal solution for test was added dropwise on the filter paper, followed by putting 30 mg of sucrose on it uniformly as a bait. Ten female Musca domestica imagoes were set free in the polyethylene cup and covered it with a lid. After 24 hours, the number of surviving and dead Musca domestica was examined and the rate of dead pests was calculated.

[2] = system: Culex pipiens pallens; experiment: Test Example 5: larvae in treated water, Culex pipiens pallens; conditions: 24 h; active ingredient concentration 3.5 ppm in water; twenty last-instar larvae of Culex pipiens pallens; after one day; read-out: rate of dead pests
Procedure: The formulation obtained according to Formulation Example 5 using the compound of the present invention (1), (2), (3), (4), (5), (6), (7), (8), (9), (10), (11), (12), (13), (14), (15), (16), (17), (18), (19), (20), (21), (22), (23), (25), (27), (28), (29), […], (31), (32), (33), (34), (35), (36), (37), (38), (39), (41), (44), (45), (46), (47) and (48) respectively, was diluted with water so that the active ingredient concentration came to 500 ppm to prepare a pesticidal solution for test.
0.7 ml of above pesticidal solution for test was added to 100 ml of ion exchanged water (active ingredient concentration: 3.5 ppm). Twenty last-instar larvae of Culex pipiens pallens were set free in the solution. After one day, the number of surviving and dead Culex pipiens pallens was examined and the rate of dead pests was calculated.

[3] = system: Blattella germanica; experiment: Test Example 4: treated filter paper with sucrose bait, Blattella germanica; conditions: 144 h; 500 ppm, 0.7 ml on filter paper; two male Blattella germanica imagoes; after 6 days; read-out: rate of dead pests
Procedure: as §1, with “(8), (9),” for “(8),”, “(16), (18),” for “(16),”, “(22), (27),” for “(22),”, “(34), (35),” for “(34),”, “(38), (43)” for “(38)”, “[…]” for “(39)”
as §2, with “Two male Blattella germanica” for “Ten female Musca domestica”, “6 days,” for “24 hours,”, “Blattella germanica” for “Musca domestica”

Row | SMILES | pest or weed control at 500 ppm [1] | pest or weed control at 3.5 ppm [2] | pest or weed control at 500 ppm [3]
1 | N#CC(C#N)(CCC(F)(F)F)Cn1cnc(C(F)(F)F)n1 [compound of the present invention (33), {[3-(trifluoromethyl)-1H-1,2,4-triazole-1-yl]methyl}(3,3,3-trifluoropropyl)malononitrile] | ≥ 90% | ≥ 95% | 100%
2 | N#CC(C#N)(CCC(F)(F)F)Cn1cnc(C(F)(F)C(F)(F)F)n1 [compound of the present invention (34), {[3-(pentafluoroethyl)-1H-1,2,4-triazole 1-yl]methyl}(3,3,3-trifluoropropyl) malononitrile] | ≥ 90% | ≥ 95% | 100%
3 | N#CC(C#N)(CCC(F)(F)F)Cn1ccc(C(F)(F)C(F)(F)F)n1 [compound of the present invention (36), {[3-(pentafluoroethyl)-1H-pyrazole-1-yl]methyl}(3,3,3-trifluoropropyl)malononitrile] | ≥ 90% | ≥ 95% | 100%
4 | N#CC(C#N)(CCC(F)(F)F)Cn1cc(Br)c(C(F)(F)C(F)(F)F)n1 [compound of the present invention (37), [(4-bromo-3-(pentafluoroethyl)-1H-pyrazole-1-yl)methyl](3,3,3-trifluoropropyl) malononitrile] | ≥ 90% | ≥ 95% | 100%
5 | N#CC(C#N)(CCC(F)(F)F)Cn1cnc(C(F)(F)F)c1 [compound of the present invention (38), {[4-(trifluoromethyl)-1H-imidazole-1-yl]methyl}(3,3,3-trifluoropropyl) malononitrile] | ≥ 90% | ≥ 95% | 100%
